Measurements from ChEMBL document CHEMBL1201862, “PubChem BioAssay data set” (2004).
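The compound was tested at five concentrations on cells cultured in 96-well plates, with a 48-hour exposure period. Here, GI50 denotes the concentration required for 50% inhibition of growth.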 Active and inactive are the calls of the source. Rule as the data show it: active = GI50 up to about 1.1 µM and inactive = higher.

Tests used:
Experiment in all cases: DTP human tumour cell line panel, 48 h
DMS-273 = tested on: DMS-273
HOP-18 = tested on: HOP-18
LXFL 529 = tested on: LXFL 529
M19-MEL = tested on: M19-MEL
RXF 631 = tested on: RXF 631
SNB-78 = tested on: SNB-78
XF498 = tested on: XF498
DLD-1 = tested on: DLD-1
DMS-114 = tested on: DMS-114

Compound | GI50 (DMS-273) | GI50 (HOP-18) | GI50 (LXFL 529) | GI50 (M19-MEL) | GI50 (RXF 631) | GI50 (SNB-78) | GI50 (XF498) | GI50 (DLD-1) | GI50 (DMS-114)
COc1ccc(CNc2nc3ccccc3nc2-c2cccs2)cc1OC | 50.5 µM (inactive) | > 100 µM (inactive) | 15.7 µM (inactive) | 33.1 µM (inactive) | 29.7 µM (inactive) | 82.8 µM (inactive) | 16 µM (inactive) | – | –
Cc1ccccc1NC(=O)C(=O)C(c1cnc2ccc([N+](=O)[O-])cc2n1)[N+](=O)[O-] (configuration not stated) | 44.5 µM (inactive) | > 100 µM (inactive) | – | 83 µM (inactive) | 70.3 µM (inactive) | > 100 µM (inactive) | – | > 100 µM (inactive) | 43 µM (inactive)
Cn1c(N)c(-c2c3ccccc3nc3ccccc23)c(=O)n(C)c1=O | – | > 100 µM (inactive) | > 100 µM (inactive) | > 100 µM (inactive) | – | – | – | – | > 100 µM (inactive)
O=C(C#Cc1cnc(O)nc1O)c1ccccc1Cl | 19.1 µM (inactive) | 20 µM (inactive) | – | – | – | 24.8 µM (inactive) | – | 15.5 µM (inactive) | 21.9 µM (inactive)
CS(=O)(=O)CSCSSCS(C)(=O)=O | 25.9 µM (inactive) | 37.6 µM (inactive) | 18.1 µM (inactive) | > 57.9 µM (inactive) | 32 µM (inactive) | 49.4 µM (inactive) | 32 µM (inactive) | 30 µM (inactive) | 27.3 µM (inactive)
Cc1ccc(S(=O)(=O)n2cc(/C=C/C#N)c(/C=C/C#N)c2)cc1 | 49.5 µM (inactive) | 20.8 µM (inactive) | > 100 µM (inactive) | > 100 µM (inactive) | > 100 µM (inactive) | – | > 100 µM (inactive) | – | 22.6 µM (inactive)
O=C(C/C(CCC(=O)N(Cc1ccccc1)Cc1ccccc1)=N/Nc1ccc([N+](=O)[O-])cc1[N+](=O)[O-])c1ccccc1 | > 100 µM (inactive) | > 100 µM (inactive) | 25 µM (inactive) | 68.4 µM (inactive) | – | > 100 µM (inactive) | > 100 µM (inactive) | 49.9 µM (inactive) | > 100 µM (inactive)
O=C(CCc1nnc2s/c(=C\c3ccc([N+](=O)[O-])cc3)c(=O)n12)Nc1ccc(Cl)c(Cl)c1 | 24.5 µM (inactive) | – | 13.4 µM (inactive) | 31.6 µM (inactive) | 49.9 µM (inactive) | 25.4 µM (inactive) | 27.6 µM (inactive) | 19.3 µM (inactive) | 17.3 µM (inactive)
C#CCN(C)C(=O)N(CC#C)N=O | > 100 µM (inactive) | > 100 µM (inactive) | > 100 µM (inactive) | > 100 µM (inactive) | > 100 µM (inactive) | > 100 µM (inactive) | – | > 100 µM (inactive) | > 100 µM (inactive)
N#CC(/C(=N/NC(=O)C(=O)NN)C(=O)Nc1nc([N+](=O)[O-])cs1)c1ccc(Cl)cc1 (configuration not stated) | – | – | > 100 µM (inactive) | > 100 µM (inactive) | – | > 100 µM (inactive) | > 100 µM (inactive) | > 100 µM (inactive) | > 100 µM (inactive)
Oc1ccc(O)c(-n2cccn2)c1 | 75.5 µM (inactive) | – | 20.9 µM (inactive) | 30 µM (inactive) | 50 µM (inactive) | 58.5 µM (inactive) | > 100 µM (inactive) | 63 µM (inactive) | 29.6 µM (inactive)
CCOC(=O)C(=O)Nc1nc2c(OCC)cccc2s1 | > 100 µM (inactive) | > 100 µM (inactive) | > 100 µM (inactive) | > 100 µM (inactive) | > 100 µM (inactive) | > 100 µM (inactive) | – | > 100 µM (inactive) | > 100 µM (inactive)
CN(C)CCNC(=O)c1cccc2c1nc(-c1ccccc1)c1ccccc12 | 2.91 µM (inactive) | 14.7 µM (inactive) | – | 5.2 µM (inactive) | 1.05 µM (active) | 10.4 µM (inactive) | – | 2.33 µM (inactive) | –
O=C(Nc1cccc(NC(=O)c2cc(=O)c3ccccc3o2)n1)c1cc(=O)c2ccccc2o1 | 9.64 µM (inactive) | – | 7.69 µM (inactive) | > 100 µM (inactive) | 51.5 µM (inactive) | > 100 µM (inactive) | – | 75.9 µM (inactive) | 19.2 µM (inactive)
O=c1c2ccccc2n2nnc3ccc(NCCNCCO)c1c32 | 2.62 µM (inactive) | 0.183 µM (active) | 2.42 µM (inactive) | 2.26 µM (inactive) | 1.85 µM (inactive) | 7.71 µM (inactive) | 5.7 µM (inactive) | 2.19 µM (inactive) | 3.2 µM (inactive)
CC(C)(C)OC(=O)N1N=NC2C1C1CC(OCc3ccccc3)(OCc3ccccc3)C2O1 (configuration not stated) | 52.2 µM (inactive) | 35.9 µM (inactive) | 16.4 µM (inactive) | 37.5 µM (inactive) | > 100 µM (inactive) | 43.7 µM (inactive) | 15.9 µM (inactive) | 26.1 µM (inactive) | 17.7 µM (inactive)
CC12CC[C@@H](C(C)(C)O)C1[C@@H](O)CC1(C)C2CCC2[C@@]3(C)CC[C@H](O)C(C)(C)C3C(O)C[C@]21C (some centres not stated) | – | 24.6 µM (inactive) | 14 µM (inactive) | 24.3 µM (inactive) | 18.5 µM (inactive) | 14.6 µM (inactive) | – | 19.8 µM (inactive) | 13.6 µM (inactive)
O=C(c1ccc2c3c(ccc(C(=O)C(F)(F)F)c13)CC2)C(F)(F)F | 27.9 µM (inactive) | 53.2 µM (inactive) | 40.3 µM (inactive) | 35.5 µM (inactive) | – | > 100 µM (inactive) | 9.31 µM (inactive) | 88.1 µM (inactive) | 41.4 µM (inactive)
CCC1=C(CC2NCCc3ccccc32)CC2c3cc(OC)c(OC)cc3CCN2C1 (configuration not stated) | 0.618 µM (active) | – | 0.995 µM (active) | 0.627 µM (active) | 1.45 µM (inactive) | 1.44 µM (inactive) | 0.8 µM (active) | 2.49 µM (inactive) | –
CC(=O)O[C@H]1CCN2C(=O)C=CC(OCc3ccccc3)C12 (some centres not stated) | > 100 µM (inactive) | > 100 µM (inactive) | > 100 µM (inactive) | > 100 µM (inactive) | – | > 100 µM (inactive) | > 100 µM (inactive) | > 100 µM (inactive) | > 100 µM (inactive)
CCOC(=O)CC1NC(=O)CS1 (configuration not stated) | 37.7 µM (inactive) | > 100 µM (inactive) | > 100 µM (inactive) | > 100 µM (inactive) | > 100 µM (inactive) | > 100 µM (inactive) | – | 42.5 µM (inactive) | 25.1 µM (inactive)
CC(C)(CN1CCCCC1)C(=O)/C=C/c1ccccc1 | 13.5 µM (inactive) | – | 16.9 µM (inactive) | 18.9 µM (inactive) | 21.1 µM (inactive) | 22.5 µM (inactive) | 14.7 µM (inactive) | 13.7 µM (inactive) | 14.4 µM (inactive)
O=C(c1ccccc1)C(c1ccccc1)C1(O)C(=O)Nc2ccccc21 (configuration not stated) | > 100 µM (inactive) | – | > 100 µM (inactive) | > 100 µM (inactive) | > 100 µM (inactive) | > 100 µM (inactive) | > 100 µM (inactive) | > 100 µM (inactive) | > 100 µM (inactive)
O=C(O)c1cc(-c2ccccc2O)nc2ccccc12 | – | 26.2 µM (inactive) | > 100 µM (inactive) | > 100 µM (inactive) | – | > 100 µM (inactive) | > 100 µM (inactive) | > 100 µM (inactive) | > 100 µM (inactive)
Cc1nnc2n1N=C(c1ccc(-c3ccc([N+](=O)[O-])cc3)o1)CS2 | > 100 µM (inactive) | – | > 100 µM (inactive) | > 100 µM (inactive) | – | > 100 µM (inactive) | – | > 100 µM (inactive) | –
